Values quoted from earlier work as cited in patent EP1214078B1, “FORMULATIONS FOR PARENTERAL USE OF ES[…] AND AMINO ACIDS” (priority 1999, dated 2001).

Details: patients, slow intravenous injection or bolus, 300 mg/day

## C[C@]12CC[C@@H]3c4ccc(OC(=O)N(CCCl)CCCl)cc4CC[C@H]3[C@@H]1CC[C@@H]2OP(=O)(O)O [estramustine phosphate, Estramustine phosphate]
  side effects at the peripheral intravenous injection sites: thrombophlebitis and local irritations
